Assay [1] relates to Phytophthora infestans. Format: cell-based. The note with it: for effective pesticide against Phytophthora infestans (summary in words): summary of in vitro screening; for Bio-activity value Phytophthora infestans: tomato leaf discs, compound dissolved in DMSO, visual score 5 days, % from maximal value.
For assay [2], the system named is Phytophthora infestans. Format: in vivo, Phytophthora infestans on tomato. Conditions: tomato seedlings, greenhouse, preventative spraying, Formulation 15 or 16, four independent experiments (FIGS. 1-4).
Assay [3] relates to Pseudoperonospora cubensis. Put plainly: Microplate-based cucumber leaf disc screening against Pseudoperonospora cubensis. The class given is cell-based. Here is the method: Background: Pseudoperonospora cubensis is an obligatory pathogen from Oomycetes which is very difficult to grow on synthetic medium. Therefore, the bioactivity screening system based on leaf discs prepared from detached cucumber leaves were used.
Summary: dihydroquinidine or dihydroquinine were dissolved in DMSO were added to cucumber leaf discs infected with Pseudoperonospora and the disease progress was monitored by visual inspection.
General description: Inoculation and maintenance on cucumber leaves, preparation of spore suspension, their growth on leaf discs in microplates and inspection by magnifying glass of Pseudoperonospora cubensis severity of infection.
• 1) Grow plants, in the growth room (27° C.), high light radiation. • 2) Use standard garden soil. • 3) Plant cucumber seeds. • 4) Add fertilizer once a week.
• 1) Put 3 (double) pieces of sterile paper in a square Petri dish. • 2) Work in sterile conditions. • 3) Use leaves from healthy plants. The leaves should be young and healthy, their size should fit to the square plate. • 4) Cut the leaves by a sterile scalpel, leaving a long stem. • 5) Add 10 ml sterile distilled water to wet the paper (the paper should be maximally wet, but without additional dripping water), discard excess of water. […]

In the next assay the test system is Cucumber downey mildew. The note with it: described in JP2003081945A; cited from earlier work.

Take `CCC1C[N@]2CC[C@H]1C[C@@H]2C(O)c1ccnc2ccc(OC)cc12` (stereo in doubt) [DIHYDROQUINIDINE, (S)-[(2R,4S,5R)-5-ethyl-1-azabicyclo[2.2.2]octan-2-yl](6-methoxyquinolin-4-yl) methanol]: in the assay on Phytophthora infestans [1], the “effective pesticide against Phytophthora infestans (summary in words)” value is given as “effective” and the “Bio-activity value Phytophthora infestans” value was determined as 100%. Also, in the assay with Phytophthora infestans [2], the “efficacy of control of Phytophthora infection” value was “up to 89.38%”. For the same compound, the “Bio-activity value Pseudoperonospora cubensis” value in assay [3] (cucumber leaf discs, compound dissolved in DMSO, visual score 7 days after inoculation, % from maximal value) was 66%. Besides, the “effective pesticide against Pseudoperonospora cubensis (summary in words)” value in assay [3] (summary of in vitro screening) is listed as “effective”.
As for `CCC1C[N@]2CC[C@H]1C[C@H]2C(O)c1ccnc2ccc(OC)cc12` (stereo in doubt) [DIHYDROQUININE, (R)-[(2S,4S,5R)-5-ethyl-1-azabicyclo[2.2.2]octan-2-yl](6-methoxyquinolin-4-yl) methanol], in the assay with Phytophthora infestans [1], the “effective pesticide against Phytophthora infestans (summary in words)” value is reported as “affective” and the “Bio-activity value Phytophthora infestans” value came to 83%.
`C=C[C@H]1C[N@@]2CC[C@H]1C[C@H]2[C@H](O)c1ccnc2ccc(OC)cc12` [quinine]: the “bioactivity against Cucumber downey mildew” value in the assay with Cucumber downey mildew is listed as “fungicidal bioactivity”.

The values are drawn from patent US20250098680A1 (priority 2022, published 2025).
